{
  "source": "paper PMC7425875",
  "about": "“Identification of peptides interfering with the LRRK2/PP1 interaction” (PLoS ONE, 2020)",
  "key": {"[1]": {"assay": "Analysis of peptide integrity in human serum (MALDI-TOF MS)", "format": "in vitro ADME", "conditions": "37°C, different periods of time, mass spectrometry", "description": "Peptides were incubated at 37°C in 250 μl of human serum (Sigma Aldrich) for different periods of time. Samples were collected and peptide degradation stopped by freezing. Peptides were extracted from samples using the Proteo Miner Protein Enrichment System (Bio-Rad). Percentage of intact peptide was estimated by mass spectrometry (MS) using MALDI-TOFF as described previously[19] (Bruker Autoflex II) following their protocol. Measurements were performed in triplicate. MS data were analysed using the software Cliprot tools, Felx analysis, Bruker."}, "LRRK2/PP1 interaction": {"target": "T1, LRRK2/PP1 interaction (Homo sapiens, UniProt P62136)", "T1 construct": "MDA-MB231 cells were lysed and cytoplasmic extracts immunoprecipitated with anti-PP1 antibody (Santa Cruz); endogenous in cells; host or cells: MDA-MB231", "T1 sequence (P62136 whole entry)": "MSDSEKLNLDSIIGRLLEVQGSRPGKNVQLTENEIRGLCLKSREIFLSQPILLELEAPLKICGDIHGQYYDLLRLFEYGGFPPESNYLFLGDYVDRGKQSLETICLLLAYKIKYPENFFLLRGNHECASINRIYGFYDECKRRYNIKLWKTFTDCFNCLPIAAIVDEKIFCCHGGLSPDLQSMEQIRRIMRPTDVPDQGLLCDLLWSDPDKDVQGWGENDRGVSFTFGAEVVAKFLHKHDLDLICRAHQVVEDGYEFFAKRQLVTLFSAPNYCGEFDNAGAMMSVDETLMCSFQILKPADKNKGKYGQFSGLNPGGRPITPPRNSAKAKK", "assay": "In vitro competition of LRRK2/PP1 interaction in anti-PP1 immunoprecipitates (western blot)", "format": "binding", "conditions": "1 mM peptide, 30 min room temperature, MDA-MB231 lysates", "description": "The protocol was previously described. Briefly, cells (5x10^6) were lysed for 20 min at 4°C in lysis buffer (50 mM Tris pH8, 1% NP40, 137 mM NaCl, 1 mM MgCl2, 1 mM CaCl2, 10% glycerol and protease inhibitor mixture Sigma Aldrich). Lysates (500 μg) were immunoprecipitated with the appropriated antibody overnight at 4°C and protein A/G Sepharose (Santa Cruz) was added for 1h at 4°C. After washing with 1x TBST (20 mM Tris-HCl pH7.5, 150 mM NaCl, 0.05% Tween 20), the PP1/LRRK2 interaction was competed using 1 mM of the Mut3DPT-LRRK2-Long or Mut3DPT-LRRK2-Shor peptide for 30 min at room temperature. After several washing steps, immunoprecipitates were separated by SDS-PAGE, transferred to nitrocellulose and blotted with anti PP1 antibody (Santa Cruz or Thermo Fisher 1:500 dilution). The membrane was washed and incubated with PO-conjugates secondary antibody (Dako, 1:1000 dilution). Protein detection was performed using the ECL system (Bio-Rad). As internal control, the blot was also hybridized with anti-LRRK2 antibody (Abcam, ab133474, 1;500 dilution). Western blots were densitometred using Image J. Statistic analysis were done using Anova."}},
  "note": "No end group written: not given here.",
  "data": [
    {"sequence": "THRPPMWSPVWPGFWSRLINRLLEI [BBB-LRRK2-Short]", "values": [
      {"measurement": "Resistance to degradation by proteases in human serum", "setting": "[1]", "value": "only very limited degradation"}
    ]},
    {"sequence": "THRPPMWSPVWPPMGFWSRLINRLLEISPY [BBB-LRRK2-Long]", "values": [
      {"measurement": "Resistance to degradation by proteases in human serum", "setting": "[1]", "value": "only very limited degradation"}
    ]},
    {"sequence": "VKKKKIKAEIKI [Mut3DPT, Optimized cell penetrating peptide (shuttle alone), derived from DPT-Sh1]", "values": [
      {"measurement": "Competition of LRRK2/PP1 interaction (LRRK2 detected in anti-PP1 immunoprecipitates)", "setting": "LRRK2/PP1 interaction", "value": "LRRK2 was detected"}
    ]}
  ]
}
